Laboratory results from ChEMBL document CHEMBL3637782, “GSK Tres Cantos Follow-up TB Screening Data” (2016).
In brackets after ≈: the same amount, converted by molar mass.

Experiments:
[1] = system: Mycobacterium tuberculosis H37Rv; experiment: GSK_TB: Minimum inhibitory concentration against H37Rv stain of Mycobacterium tuberculosis using MABA method; type: functional; conditions: ATCC25618
[2] = system: Mycobacterium tuberculosis H37Rv; experiment: GSK_TB: Inhibition of the intracellular growth of Mycobacterium tuberculosis (pXC50); type: functional, ATCC25618
[3] = system: Mycobacterium tuberculosis H37Rv; experiment: GSK_TB: Growth inhibition of non-replicating Mycobacterium tuberculosis (pXC50); type: functional, ATCC25618
HepG2 = experiment: GSK_TB: The cytotoxicity against HepG2 cells expressed as IC50; type: functional, cell-based; conditions: Homo sapiens
[4] = GSK_TB: Kinetic solubility of the compound in phosphate buffered saline at pH 7.4 after 1 hr by CLND method; type: physicochemical
[5] = GSK_TB: Lipophilicity, log D of the compound at pH 7.4 by ChromlogD analysis; type: physicochemical; conditions: buffer
[6] = GSK_TB: AVG_CHROM_LOGP; type: physicochemical

SMILES	MIC [1] [µM]	pXC50 [2]	pXC50 [3]	IC50 (HepG2) [µM]	solubility kinetic at 1 h [4] [µg/mL]	Lipophilicity [5]	Lipophilicity [6]
Nc1ccccc1Nc1ccc(Cl)cc1	2 (≈ 0.437 µg/mL)	7.8	4.5	79	59 (≈ 270 µM)	5.76	5.9114
N#Cc1cc(C(F)(F)F)c2nc(C(=O)NCc3cccs3)c(Cl)n2c1	10 (≈ 3.85 µg/mL)	6.1	5.2	> 100	72 (≈ 187 µM)	5.21	5.4382
CN(Cc1ccc(Cl)cc1)C(=O)CCc1nc2ccccc2oc1=O	3.9 (≈ 1.39 µg/mL)	<4.3	4.9	> 100	127 (≈ 356 µM)	5.86	6.0093
FC(F)(F)c1nnc2ccc(Sc3nnc(-c4ccco4)o3)nn12	5.6 (≈ 1.98 µg/mL)	5.4	4.5	32	125 (≈ 353 µM)	3.78	3.8715
COc1ccc2nccc(NC(=O)C3CCN(CCc4ccc(Cl)cc4)CC3)c2n1	0.2 (≈ 0.085 µg/mL)	6.6	5.1	> 100	4 (≈ 9.41 µM)	5.49	–
COc1ccc(Nc2ncccc2N)cc1	5.6 (≈ 1.21 µg/mL)	6.2	–	63	18 (≈ 83.6 µM)	1.45	1.44
N#Cc1ncn(-c2ccc3nnc(C(F)(F)F)n3n2)n1	5 (≈ 1.4 µg/mL)	<4.3	–	> 100	≥ 105	3.31	3.3167
